For experiment [1], the system named is human breast cancer cell line MCF-7. As to the kind of experiment: Cancer cell growth inhibition test (CellTiter-Glo). The format is cell-based. The following applies: MCF-7, 72 hours. Here is the method: The human breast cancer cell line MCF-7 was treated with trypsin and harvested. The number of cells was counted, and about 3000 cells/80 μl per well were inoculated into a 96 well plate (Corning) and then incubated in a 37° C. incubator for 24 hours. Thereafter, the example compounds were diluted in a culture solution at various concentrations, and each well was treated with 20 μl and stored in a cell culture incubator for 72 hours. In the case of the group administered in combination, the example compounds and cisplatin or doxorubicin were diluted in a culture solution at various concentrations, and each well was treated with 20 μl. After 72 hours, each well was treated with 30 μl of CellTiter-Glo solution (Promega), and the luminescence was read on a Victor3 multi label reader (PerkinElmer).
Relative viability (%)=(value of each test well/value of well treated with DMSO alone)×100
The results obtained for each concentration for each example compound were the average values obtained from three wells, and PRIZM software was used for analysis of the results.

For experiment [2], the target named is Chk2 kinase (Homo sapiens (Human), UniProt O96017). Briefly: Chk2 kinase inhibitory activity (LanthaScreen TR-FRET). The format is biochemical. Conditions: graded. On the procedure: The compounds of Examples 1 to 66 were diluted at various concentrations and transferred to a 384-well plate by 5 μl, and 10 μl of a mixed solution (2×) of Chk1 kinase (Thermo, P3040) or Chk2 kinase (Thermo, PV3367) and a substrate (Thermo, PV3508) was added to wells treated with the compounds. 5 μl of an ATP solution at a 4× concentration was added to the test well and reacted at room temperature for 1 hour. 20 μl of LanthaScreen Terbium-CREB p-Ser 133 antibody (Thermo, PV3542) was added to the reaction well and incubated at room temperature for 30 minutes. Conversion data was measured by an EnVision 2014 multi label reader (PerkinElmer). The activity for each concentration was determined by the ratio (FRET ratio=FR) of the value obtained by dividing the value at 520 nm by the value at 490 nm among the emission wavelength values for each wavelength (Em520/Em490). The results obtained for each concentration of the compounds were the average values obtained in two wells, and the IC50 values of the compounds were calculated using PRIZM software for analysis of the results. IC50 in Table 7 was graded as follows.
(Time-resolved FRET reads energy transfer from a long-lived donor to a nearby acceptor.)

The mark [3] stands for this setting: Homo sapiens, MCF7, 72 h, graded, read-out: Celltiter glo analysis (IC50).
Where [4] appears, read: Homo sapiens, MCF7, 72 h, alone, read-out: Administered alone (IC50).

As usually defined, the IC50 is the concentration needed to halve the response being measured.

Molecules are shown by their SMILES. Like-named read-outs stand apart in the source and are kept apart here.

Sequence of Chk2 kinase (O96017 whole entry): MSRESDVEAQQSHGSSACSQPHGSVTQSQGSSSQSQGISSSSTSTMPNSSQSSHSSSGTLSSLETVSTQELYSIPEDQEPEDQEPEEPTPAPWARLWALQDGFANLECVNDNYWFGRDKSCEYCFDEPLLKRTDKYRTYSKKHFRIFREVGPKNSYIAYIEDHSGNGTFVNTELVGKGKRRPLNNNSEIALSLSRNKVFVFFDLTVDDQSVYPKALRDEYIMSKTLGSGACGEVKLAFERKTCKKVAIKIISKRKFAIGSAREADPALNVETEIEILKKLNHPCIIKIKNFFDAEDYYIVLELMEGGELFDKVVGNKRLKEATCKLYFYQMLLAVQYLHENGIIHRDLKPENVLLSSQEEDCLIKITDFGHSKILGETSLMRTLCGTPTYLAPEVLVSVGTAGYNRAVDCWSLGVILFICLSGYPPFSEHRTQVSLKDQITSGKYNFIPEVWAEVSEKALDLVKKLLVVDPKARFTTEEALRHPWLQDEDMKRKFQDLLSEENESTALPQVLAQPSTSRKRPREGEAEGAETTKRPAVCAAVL

As for `CC1(C)Cc2c(-c3cccc(-c4cnc(N)c(C(=O)N[C@@H]5CNCCOC5)n4)c3)cnn2C1` (stereo in doubt) [Example 61, 3-amino-6-(3-(5,5-dimethyl-5,6-dihydro-4H-pyrrolo[1,2-b]pyrazol-3-yl)phenyl)-N-(1,4-oxazepan-6-yl)pyrazine-2-carboxamide], the IC50 in experiment [1] (setting [3]) was over 100 µM; in experiment [2] it was at most 0.01 µM.
Taken in the same sequence, the figures for `Nc1ncc(-c2cc(-c3cnn(CC(F)(F)F)c3)ncc2F)nc1C(=O)N[C@H]1CCCNC1` [Example 1, (S)-3-amino-6-(5-fluoro-2-(1-(2,2,2-trifluoroethyl)-1H-pyrazol-4-yl)pyridin-4-yl)-N-(piperidin-3-yl) pyrazine-2-carboxamide] were 10 to 100 µM and 0.01 to 0.1 µM.
Taken in the same sequence, the figures for `Nc1ncc(-c2cc(-c3cnn(CC(F)(F)F)c3)ncc2F)nc1C(=O)N[C@@H]1CNCC[C@H]1O` [Example 3, 3-amino-6-(5-fluoro-2-(1-(2,2,2-trifluoroethyl)-1H-pyrazol-4-yl)pyridin-4-yl)-N-((3R,4R)-4-hydroxypiperidin-3-yl)pyrazine-2-carboxamide] were 10 to 100 µM and at most 0.01 µM.
Regarding `CC(C)(O)Cn1cc(-c2cc(-c3cnc(N)c(C(=O)N[C@H]4CCCNC4)n3)ccn2)cn1` [Example 5, (S)-3-amino-6-(2-(1-(2-hydroxy-2-methylpropyl)-1H-pyrazol-4-yl)pyridin-4-yl)-N-(piperidin-3-yl) pyrazine-2-carboxamide], the concentration for half-maximal inhibition (IC50) was over 100 µM in experiment [1] (setting [3]) and at most 0.01 µM in experiment [2].
`CC(C)(O)Cn1cc(-c2cc(-c3cnc(N)c(C(=O)NC4CNC[C@@H](F)C4)n3)ccn2)cn1` (stereo partly drawn) [Example 6, 3-amino-N-((3S,5S)-5-fluoropiperidin-3-yl)-6-(2-(1-(2-hydroxy-2-methylpropyl)-1H-pyrazol-4-yl)pyridin-4-yl)pyrazine-2-carboxamide]: the IC50 in experiment [1] (graded, read-out: Celltiter glo analysis (IC50)) is 10 to 100 µM; in experiment [2], at most 0.01 µM.
Consider `CC(C)(O)Cn1cc(-c2cc(-c3cnc(N)c(C(=O)N[C@H]4CCC5(CC5)NC4)n3)ccn2)cn1` [Example 7, (S)-3-amino-6-(2-(1-(2-hydroxy-2-methylpropyl)-1H-pyrazol-4-yl)pyridin-4-yl)-N-(4-azaspiro[2.5]octan-6-yl)pyrazine-2-carboxamide], for which the half-maximal inhibitory concentration (IC50) in experiment [1] (setting [3]) is 10 to 100 µM; in experiment [2] it was at most 0.01 µM.
For `Nc1ncc(-c2cc(-c3cnn(CC(F)(F)F)c3)ccc2F)nc1C(=O)N[C@H]1CCC2(CC2)NC1` [Example 8, (S)-3-amino-6-(2-fluoro-5-(1-(2,2,2-trifluoroethyl)-1H-pyrazol-4-yl)phenyl)-N-(4-azaspiro[2.5]octan-6-yl)pyrazine-2-carboxamide], the IC50 in experiment [1] (setting [3]) lay in the range of 10 to 100 µM; in experiment [2], 0.01 to 0.1 µM.
For `Nc1ncc(-c2cc(-c3cnn(CC(F)(F)F)c3)ccc2F)nc1C(=O)N[C@@H]1CNCC[C@H]1O` [Example 10, 3-amino-6-(2-fluoro-5-(1-(2,2,2-trifluoroethyl)-1H-pyrazol-4-yl)phenyl)-N-((3R,4R)-4-hydroxypiperidin-3-yl) pyrazine-2-carboxamide], the IC50 in experiment [1] (setting [3]) lay in the range of 10 to 100 µM; in experiment [2], 0.01 to 0.1 µM.
Taken in the same sequence, the figures for `Nc1ncc(-c2cc(-c3cnn(CC(F)(F)F)c3)ccc2F)nc1C(=O)N[C@@H]1CNC[C@H]1O` [Example 11, 3-amino-6-(2-fluoro-5-(1-(2,2,2-trifluoroethyl)-1H-pyrazol-4-yl)phenyl)-N-((3R,4R)-4-hydroxypyrrolidin-3-yl) pyrazine-2-carboxamide] were 10 to 100 µM and 0.01 to 0.1 µM.
Consider `Nc1ncc(-c2cc(-c3cnn(CC(F)(F)F)c3)ccc2F)nc1C(=O)N[C@@H]1CNCC(F)(F)C1` [Example 12, (S)-3-amino-N-(5,5-difluoropiperidin-3-yl)-6-(2-fluoro-5-(1-(2,2,2-trifluoroethyl)-1H-pyrazol-4-yl)phenyl)pyrazine-2-carboxamide], for which the IC50 in experiment [1] (setting [3]) was at most 10 µM; in experiment [2], over 1 µM.
For the molecule `Nc1ncc(-c2ccnc(-c3cnn(CC(F)(F)F)c3)c2)nc1C(=O)N[C@@H]1CNCC(F)(F)C1` [Example 13, (S)-3-amino-N-(5,5-difluoropiperidin-3-yl)-6-(2-(1-(2,2,2-trifluoroethyl)-1H-pyrazol-4-yl)pyridin-4-yl)pyrazine-2-carboxamide], the IC50 in experiment [1] (setting [4]) was 8.59 µM; in experiment [1] (setting [3]), at most 10 µM; in experiment [1] (combination with cisplatin, read-out: Administered in combination with cisplatin (IC50)), 2.93 µM; in experiment [1] (combination with doxorubicin, read-out: Administered in combination with doxorubicin (IC50)), 0.91 µM; in experiment [2], 0.1 to 1 µM.
With `CC(C)(O)Cn1cc(-c2cc(-c3cnc(N)c(C(=O)N[C@@H]4CNC[C@@H](F)C4)n3)c(F)cn2)cn1` [Example 22, 3-amino-6-(5-fluoro-2-(1-(2-hydroxy-2-methylpropyl)-1H-pyrazol-4-yl)pyridin-4-yl)-N-((3S,5S)-5-fluoropiperidin-3-yl)pyrazine-2-carboxamide], the IC50 in experiment [1] (setting [3]) is 10 to 100 µM; in experiment [2], over 1 µM.
The like results for `Nc1ncc(-c2cc(-c3cnn(CC(F)(F)F)c3)ccc2O)nc1C(=O)N[C@@H]1CNC[C@@H](F)C1` [Example 23, 3-amino-N-((3S,5S)-5-fluoropiperidin-3-yl)-6-(2-hydroxy-5-(1-(2,2,2-trifluoroethyl)-1H-pyrazol-4-yl)phenyl)pyrazine-2-carboxamide] were, in that order, 10 to 100 µM and at most 0.01 µM.
The like results for `Nc1ncc(-c2cc(-c3cnn(CC(F)(F)F)c3)ccc2O)nc1C(=O)N[C@H]1CCCNC1` [Example 24, (S)-3-amino-6-(2-hydroxy-5-(1-(2,2,2-trifluoroethyl)-1H-pyrazol-4-yl)phenyl)-N-(piperidin-3-yl) pyrazine-2-carboxamide] were, in that order, 10 to 100 µM and at most 0.01 µM.
Regarding `CC(C)(O)Cn1cc(-c2cc(-c3cnc(N)c(C(=O)NC4CNC[C@@H](F)C4)n3)ccn2)cn1` (stereo partly drawn) [Example 34, 3-amino-N-((3S,5S)-5-fluoropiperidin-3-yl)-6-(2-(1-(2-hydroxy-2-methylpropyl)-1H-pyrazol-4-yl)pyridin-4-yl)pyrazine-2-carboxamide], the IC50 in experiment [1] (setting [3]) is 10 to 100 µM.
With `CC1(C)Cc2c(-c3ccc(F)c(-c4cnc(N)c(C(=O)N[C@@H]5CNCC[C@H]5O)n4)c3)cnn2C1` [Example 47, 3-amino-6-(5-(5,5-dimethyl-5,6-dihydro-4H-pyrrolo[1,2-b]pyrazol-3-yl)-2-fluorophenyl)-N-((3R,4R)-4-hydroxypiperidine-3-yl) pyrazine-2-carboxamide], the concentration for half-maximal inhibition (IC50) in experiment [1] (setting [3]) was 10 to 100 µM; in experiment [2] it was 0.01 to 0.1 µM.
The like results for `CC1(C)Cc2c(-c3cc(-c4cnc(N)c(C(=O)N[C@@H]5CNC[C@@H](F)C5)n4)ccn3)cnn2C1` [Example 48, 3-amino-6-(2-(5,5-dimethyl-5,6-dihydro-4H-pyrrolo[1,2-b]pyrazol-3-yl)pyridin-4-yl)-N-((3S,5S)-5-fluoropiperidin-3-yl)pyrazine-2-carboxamide] were, in that order, 10 to 100 µM and at most 0.01 µM.
For the molecule `N.N.[Cl][Pt][Cl]` [cisplatin, reference compound], in experiment [1] (alone, read-out: Administered alone (IC50)), the IC50 came out at 26 µM.
With `COc1cccc2c1C(=O)c1c(O)c3c(c(O)c1C2=O)C[C@@](O)(C(=O)CO)C[C@@H]3O[C@H]1C[C@H](N)[C@H](O)[C@H](C)O1` [doxorubicin, reference compound], the IC50 in experiment [1] (setting [4]) is 1.5 µM.

Values taken from US20250188059A1, “NOVEL COMPOUND AND USE THEREOF FOR INHIBITING CHECKPOINT KINASE 2” (ARUM THERAPEUTICS INC, priority 2022, published 2025).
